Data set [1] has as its system scopolamine-induced cognitive impairment. As to the kind of experiment: Novel object recognition (NOR) test under scopolamine-induced memory decline. The class given is in vivo, male Sprague-Dawley rats. Conditions: rats, scopolamine 1.25 mg/kg ip. The procedure:
The experiments were conducted in accordance with the NIH Guide for the Care and Use of Laboratory Animals and were approved by the II Local Ethics Committee for Animal Experiments, Maj Institute of Pharmacology. Male […] Sprague-Dawley rats (Charles River, Germany) weighing ∼250 g at the arrival were housed in the standard laboratory cages, under standard colony A/C controlled conditions: room temperature 21 ± 2 °C, humidity (40–50%), 12 h light/dark cycle (lights on, 06:00) with ad libitum access to food (unless stated otherwise) and water. Rats were allowed to acclimatize for at least 7 days before the start of the experimental procedure. During this week animals were handled at least 3 times. Behavioral testing was carried out during the light phase of the light/dark cycle. […]
The procedure consisted of habituation to the arena (without any objects) for 5 min, 24 h before the test, and test session comprised two trials separated by an inter trial interval (ITI). […] Exploration time of the objects and the distance traveled were measured using the Any-maze video tracking system. On the basis of exploration time (E) of two objects during T2, discrimination index (DI) was calculated according to the formula: DI = (EB – EA)/(EA + […]).
Data were analyzed using one-way ANOVA with treatment as between-subject factor. […]

In data set [2] the test system is HepG2 cells. Description: MTT assay, hepatotoxicity in HepG2 cells. The class given is cell-based, human. The following applies: HepG2, 24 h. The protocol:
Human hepatocellular carcinoma cells (HepG2) were cultured using standard procedures (protocol from ATCC). Cells were cultured in Eagle’s minimum essential medium (EMEM) in flasks with an area of 25 cm^2 (Falcon), supplemented with 10% of fetal bovine serum (FBS, Life Technologies) with the addition of 100 IU/mL penicillin (Sigma-Aldrich) and 100 μg/mL streptomycin (Sigma-Aldrich) and incubated at 37 °C in a humidified atmosphere with 5% CO2.
The MTT assay was used to determine the viability of HepG2 cells incubated in the presence of compound 27 and DOX. Cells were seeded at a density of 2 × 10^4 in 96-well plates. […] Following cell exposure to each compound 10 μL of MTT reagent (Sigma-Aldrich) was added to each well. After 4 h of incubation (37 °C, 5% CO2) the culture medium was aspirated and formazan crystals were dissolved in 100 μL of DMSO. Then, optical density (OD) at 570 nm was determined on a plate reader (Spectra Max iD3, Molecular Devices). Each individual experiment was repeated at least three times.
(Tetrazolium dyes change colour on reduction, which living cells bring about.)

The subject of data set [3] is cognitive flexibility. As to the kind of experiment: Attentional set-shifting task (ASST). The data set is classed as in vivo, male Sprague-Dawley rats. The following applies: rats. The protocol:
The experiments were conducted in accordance with the NIH Guide for the Care and Use of Laboratory Animals and were approved by the II Local Ethics Committee for Animal Experiments, Maj Institute of Pharmacology. Male […] Sprague-Dawley rats (Charles River, Germany) weighing ∼250 g at the arrival were housed in the standard laboratory cages, under standard colony A/C controlled conditions: room temperature 21 ± 2 °C, humidity (40–50%), 12 h light/dark cycle (lights on, 06:00) with ad libitum access to food (unless stated otherwise) and water. Rats were allowed to acclimatize for at least 7 days before the start of the experimental procedure. During this week animals were handled at least 3 times. Behavioral testing was carried out during the light phase of the light/dark cycle. At least 1 h before the start of the experiment, rats were transferred to the experimental room for acclimation.
Thirty-two male Sprague-Dawley rats were group housed with a mild food restriction (17 g of food pellets per day) for at least 1 week prior to training.
Testing was conducted in a Plexiglas apparatus (length × width × height: 38 cm × 38 cm × 17 cm) with the grid floor and wall dividing half of the length of the cage into two sections. During testing, one ceramic digging pot (internal diameter of 10.5 cm and a depth of 4 cm) was placed in each section. Each pot was defined by a pair of cues along with two stimulus dimensions. To mark each pot with a distinct odor, 5 μL of a flavoring essence (Dr Oetker, Poland, or The Body Shop, U.K.) was applied to a piece of blotting paper fixed to the external rim of the pot immediately prior to use. A different pot was used for each combination of digging medium and odor; only one odor was ever applied to a given pot. The bait (one-half of a Honey Nut Cheerios, Nestle) was placed at the bottom of the “positive” pot and buried in the digging medium. A small amount of powdered Cheerios was added to the digging media to prevent the rat from trying to detect the buried reward by its smell. […]
Day 3, Testing. […] An incorrect choice was recorded as an error. […]

This note sets out measurements from publication PMC8041276 (ACS Chemical Neuroscience, 2021).

Regarding `O=C(N[C@@H]1CCNC1)c1ccn(S(=O)(=O)c2cccc(Cl)c2)c1-c1ccc(F)cc1` [Compound 27, (R)-2-(4-Fluorophenyl)-1-[(3-chlorophenyl)sulfonyl]-N-(pyrrolidin-3-yl)-1H-pyrrole-3-carboxamide], the “effect on scopolamine-induced cognitive deficits (discrimination index)” value is reported as “not 3 mg/kg, prevented scopolamine-induced cognitive deficits” in data set [1] (3 mg/kg p.o.) and “prevented scopolamine-induced cognitive deficits” in data set [1] (6 mg/kg p.o.). The “metabolic activity of cells (MTT test)” value in data set [2] (0.1–25 μM) is “did not impair the metabolic activity of cells”. Moreover, in data set [2] (Homo sapiens, printed in Figure 5A, read-out: IC50, cellular viability (MTT)), the IC50 (in general, the concentration needed to halve the response being measured) was 32.3 µM. For the same compound, the “cognitive flexibility (trials to criterion)” value in data set [3] (6 mg/kg p.o.) is given as “effective only during the Rev2 phase”; in data set [3] (9 mg/kg p.o., ED, Rev1, Rev2, Rev3 stages), “enhanced cognitive flexibility”. The “mean time to complete the trial” value in data set [3] (6 and 9 mg/kg p.o., all discrimination stages) was “did not affect the mean time to complete the trial”.
